Test results reported in US20220072138A1, “NRTI THERAPIES” (THE UNIVERSITY OF LIVERPOOL, priority 2018, published 2022).
Blank lines part the entries; values can stand above or below the compound they belong to.

How the values were obtained:
HIV [1] = details: cited from earlier work
HIV [2] = details: in vivo; cited from earlier work
[3] = primate; cited from earlier work
[4] = In vitro metabolism of FTC POP fragments in human skeletal muscle S9; format: in vitro ADME; details: human skeletal muscle S9, 1 mM, 37° C.
Description: (§1) After incubation at 37° C., aliquots were taken at each time point and quenched in 2 volumes of Ice-cold methanol. The quenched aliquots were then centrifuged at 14000 rpm for 5 min. The supernatant was diluted 10-fold Into phosphate buffer (0.1 M, pH 7.4) and injected onto the HPLC for analysis (5% to 100% B over 8 minutes at a flow rate of 1 mL mi; solvent A: 50 mM Et3NHOAc, pH 8; solvent B: acetonitrile) and read spectrophotometrically monitoring a decrease in substrate peak area at 305 nm (23) or 280 nm (25) over time. Quantification of 23 at each time point to determine rate was achieved by converting peak areas to nmols using a standard curve (23). Quantification of 25 at each time point to determine rate was achieved by calculating nmols based on the percent of total peak area at 250 nm (25+26, 200 nmol total). Hydrolysis of 25 yields two molar equivalents of 1, determined by quantifying 1 using a standard curve following full conversion of 25 to 1.
Human S9-Skeletal Muscle (Bioreclamation IVT). Solution used for in vitro metabolism is a 50/50 mix of Male Human S9 (Bioreclamation IVT, Cat #S03517) and Female Human S9 (Bioreclamation IVT, Cat #S03518). Protein concentrations (mg/mL) were determined by averaging the concentrations provided by Bioreclamation.

in vitro = in vitro ADME; details: both sexes, human, plasma, pH 7.4
Description: as §1
Human Plasma (Bioreclamation IVT). Solution used for in vitro metabolism is a 50/50 mix of Human Plasma (Male) (Bioreclamation IVT, Cat #[…]2-M) and Human Plasma (Female) (Bioreclamation IVT, Cat #[…]2-F)

[5] = In vitro metabolism of FTC POP fragments in human liver S9; format: in vitro ADME; details: human liver S9, 1 mM, 37° C.
Description: as §1
Human Liver S9 Fraction-Pool of 50 (Sekuisi Xenotech, Product #HO610.59; 20 mg/mL stock)

[6] = Stability of carbamate 5 under model polymerization conditions; format: physicochemical; details: CH2Cl2, 0.5 eq DMAP, 2 eq pyridine, RT
Description: Stability of compound 5 under polymerization conditions. Carbamate 5 is shown to release TAF in a time bond manner. To determine the stability of carbamate moiety under polymerization conditions and evaluate the utility of TAF phenyl carbamates, carbamate 5 was tested for its stability under model polymerization conditions. A solution of carbamate 5 in methylene chloride (CH2Cl2) was stirred with 0.5 molar equivalent of 4-Dimethylaminopyridine and 2 molar equivalents of pyridine at room temperature (RT, 22-25° C.) for 24 h. The portion of the reaction mixture was removed and dissolved in DMSO followed by analysis of the reaction mixture using HPLC to determine amount of TAF formed and carbamate 5 left after 24 h. Standard curve was used to determine that 20.5% TAF was formed after 24 hours, leaving 79.5% carbamate 5 intact (FIG. 23).

[7] = Solubility of carbamate 5 in phosphate buffer; format: physicochemical; details: 100 mM phosphate buffer pH 7.4 with 5% DMSO v/v
Description: Carbamate 5 was synthesized according to the process described above. Purity. The compound was dissolved in DMSO (100 μM) and injected on HPLC to determine purity of 95.1% at 269-270 nm. Standard Curve. Serial dilution of carbamate 5 in DMSO (100 μM to 0.78 μM) was done and each sample injected on HPLC. The UV absorbance at different concentrations was used to obtain a linear standard curve. The standard curve was used in determining solubility in buffers, kinetics of degradation at pH 7.4 and stability under polymerization conditions. Solubility. Carbamate 5 in DMSO was mixed with 100 mM phosphate buffer pH7.4 with varying amounts of DMSO (0.1% v/v, 0.5% v/v, 1% v/v and 5% v/v). The mixtures were centrifuged at 14000 rpm for 5 min and the supernatant injected on HPLC.

Compound: C#C[C@]1(CO)O[C@@H](n2cnc3c(N)nc(F)nc32)C[C@@H]1O [EFdA, 4′-ethynyl-2-fluoro-2′-deoxyadenosine]
- predicted in vitro potency relative to TFV (HIV [1]; higher than TFV): ~8400 fold
- IC50 (HIV [1]; read-out: in vitro IC50): ~0.2 nM
- viral suppression maintained after the last dose (HIV [2]): ≥ 7 days
- plasma t1/2 [3]: ~7 h

- Muscle S9 initial rate (rate of disappearance of starting material) [4]: 3.7 ± 0.4 nmol/h/mg
- half-life at 1 mM (in vitro): 27 ± 1.2 min
- Liver S9 initial rate (rate of disappearance of starting material) [5]: 1014 ± 86 nmol/h/mg
Compound: Nc1nc(=O)n([C@@H]2CS[C@H](COC(=O)OCCOCCOCCOC(=O)OC[C@@H]3O[C@H](n4cc(F)c(N)nc4=O)CS3)O2)cc1F [Polymer 25, bis(((2R,5S)-5-(4-amino-5-fluoro-2-oxopyrimidin-1(2H)-yl)-1,3-oxathiolan-2-yl)methyl) ((ethane-1,2-diylbis(oxy))bis(ethane-2,1-diyl)) bis(carbonate)]

- Muscle S9 initial rate (rate of disappearance of starting material) [4]: *Non-linear trend
- half-life at 1 mM (in vitro): 780 ± 90 min
- Liver S9 initial rate (rate of disappearance of starting material) [5]: 0.6 ± 0.06 nmol/h/mg
Compound: O=C(Nc1nc(=O)n([C@@H]2CS[C@H](CO)O2)cc1F)OCCOCCOCCOC(=O)Nc1nc(=O)n([C@@H]2CS[C@H](CO)O2)cc1F [Polymer 23, (ethane-1,2-diylbis(oxy))bis(ethane-2,1-diyl) bis((5-fluoro-1-((2R,5S)-2-(hydroxymethyl)-1,3-oxathiolan-5-yl)-2-oxo-1,2-dihydropyrimidin-4-yl)carbamate)]

Compound: N-(2,4,6-trimethylphenyl)-tenofovir alafenamide carbamate [carbamate 5]
- TAF formed after 24 hours [6]: 20.5%
- carbamate 5 left intact after 24 hours [6]: 79.5%
- solubility (achievable concentration) [7]: 111.2 µM
